Data published in US12569495B2, “Inhibitors of porcine reproductive and respiratory syndrome virus” (UNIVERSITY OF CONNECTICUT, priority 2020, dated 2026).
Entries after “also recorded” stand apart in the source; their conditions may differ.

Tests used:
[1] = tested on: PRRSV strain VR-2332; assay: qRT-PCR for PRRSV RNA in infected PAMs; assay type: cell-based
Experimental: Total RNA was extracted from PAMs infected with PRRSV using RNeasy Mini Kit (Qiagen, Germantown, MD) according to the manufacturer's instruction. RNA concentrations were measured using a Nanodrop spectrophotometer (Thermo Fisher Scientific). GAPDH was used as a housekeeping gene for gene expression normalization. Data were processed with the software associated with ABI 7500.
(§1) For PRRSV infection of PAM cells, PAMs were seeded one day prior to infection. […] Cells were inoculated with VR-2332, SDSU73, NADC30 or Lelystad PRRSV at MOI=0.1 for 1 h. The 24 h cell medium supernatant was stored at −80° C. until use.

[2] = biological target: T1, PPI between PRRSV GP4 glycoprotein and CD163-SRCR5 domain (Sus scrofa, UniProt Q2VL90); assay: BiFC assay between SRCR5-VN and GP4-VC proteins; assay type: cell-based, porcine CD163; PRRSV; conditions: HEK293T cells; DMSO as Ctrl
T1 construct: The amplified cDNA fragments of SRCR2 or SRCR5 were subcloned into the pBiFC-VN155(I152L) vector; Myc tag (from vector backbone pMyc-CMV); expressed in transfected cells; host or cells: HEK293T
T1 sequence (Q2VL90 477-577): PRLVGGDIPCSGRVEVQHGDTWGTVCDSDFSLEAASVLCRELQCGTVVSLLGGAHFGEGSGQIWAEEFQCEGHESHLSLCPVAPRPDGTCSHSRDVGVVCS
From the text: The N-terminus and C-terminus of the truncated Venus-I152L were inserted into vector backbone pMyc-CMV and pCMV-HA, constituting commercial plasmids pBiFC-VN155(I152L) and pBiFC-VC155, respectively (Addgene, Watertown, MA, USA). See Kodama and Hu, Biotechniques 49:793-805 (2010). cDNA fragments for the scavenger receptor cysteine-rich domain 2 (SRCR2) and SRCR5 of porcine CD163 receptor, and for PRRSV glycoproteins GP2a and GP4 were amplified by RT-PCR. The amplified cDNA fragments of SRCR2 or SRCR5 were subcloned into the pBiFC-VN155(I152L) vector digested with EcoRI/BglII. For constructions of GP2a and GP4 fusion proteins, cDNA fragments encoding GP2a or GP4 were subcloned into the pBiFC-VC155 vector digested with EcoRI/BglII. […]
HEK293T cells cultured in 12-well plates were transfected with appropriate plasmids for each BiFC assay using FuGENE® 6 (Promega, Madison, WI, USA). […] Fluorescence images of treated cells at 24 h after plasmid transfection were captured using an inverted Nikon fluorescence microscope. Fluorescence intensity of treated cells was measured by ImageJ. […]
The BiFC assays was tested to determine whether it could identify small molecules with potential to block the protein-protein interactions between CD163 and PRRSV. […] Twenty-four hours later, images were taken under a fluorescence microscope and the fluorescence quantified. […]

[3] = tested on: 3 Type II PRRSV strains (VR-2332, SDSU73, NADC30); assay: PRRSV titration assay, Type II strains; assay type: cell-based; conditions: 15 μM; PAMs; 24 h
Experimental: (§2) For PRRSV infection of PAM cells, PAMs were seeded one day prior to infection. Control cells were treated with DMSO and test cells were treated with the selected screening compounds (5-20 μM) for 4 h before inoculation, during the 1 h PRRSV inoculation, and for 24 h after inoculation. Cells were inoculated with VR-2332, SDSU73, NADC30 or Lelystad PRRSV at MOI=0.1 for 1 h. The 24 h cell medium supernatant was stored at −80° C. until use.
(§3) For PRRSV titration assay, MARC145 cells were seeded in 48-well plates and grew to ˜80% density before inoculation. Viral supernatants were prepared by 10-fold serial dilution, and 100 μl of the dilutions was added per well in six replicates. Inocula were removed from cells after 2 h and replaced with 0.5 mL of DMEM supplemented with 2% FBS, 2 mM glutamine, 0.1 mM MEM non-essential amino acids, 50 U/mL penicillin, and 50 μg/mL streptomycin (Invitrogen). Cells were cultured at 37° C. for 6 days and any cytopathic effects were observed and recorded. The PRRSV titer was calculated using the Reed and Muench method and expressed as median tissue culture infectious dose (TCID50/mL). Reed and Muench, Am. J. Epidemiol. 27(3): 493-497 (1938).
(§4) The inhibitory effect of B7 was further tested on multiple strains of PRRSV. […]

[4] = tested on: PRRSV strain VR-2332; assay: PRRSV titration assay of culture media of infected PAMs; assay type: cell-based; conditions: for log reduction of viral titer: pre- and post-inoculation treatment
Experimental: as §1, §3

[5] = tested on: type I strain (Lelystad); assay: PRRSV titration assay, type I strain; assay type: cell-based; conditions: 15 μM; PAMs; 24 h
Experimental: as §2, §3, §4

[6] = biological target: T2, protein-protein interactions (PPI) between CD163-SRCR5 domain and PRRSV GP2a protein (Sus scrofa, UniProt Q2VL90); assay: BiFC assay between SRCR5-VN and GP2a-VC proteins; assay type: cell-based, porcine CD163; PRRSV; conditions: HEK293T cells; compounds at 5 μM; 24 h; DMSO as Ctrl
T2 construct: The amplified cDNA fragments of SRCR2 or SRCR5 were subcloned into the pBiFC-VN155(I152L) vector; Myc tag (from vector backbone pMyc-CMV); expressed in transfected cells; host or cells: HEK293T
T2 sequence (Q2VL90 477-577): as above
From the text: The N-terminus and C-terminus of the truncated Venus-I152L were inserted into vector backbone pMyc-CMV and pCMV-HA, constituting commercial plasmids pBiFC-VN155(I152L) and pBiFC-VC155, respectively (Addgene, Watertown, MA, USA). See Kodama and Hu, Biotechniques 49:793-805 (2010). cDNA fragments for the scavenger receptor cysteine-rich domain 2 (SRCR2) and SRCR5 of porcine CD163 receptor, and for PRRSV glycoproteins GP2a and GP4 were amplified by RT-PCR. The amplified cDNA fragments of SRCR2 or SRCR5 were subcloned into the pBiFC-VN155(I152L) vector digested with EcoRI/BglII. For constructions of GP2a and GP4 fusion proteins, cDNA fragments encoding GP2a or GP4 were subcloned into the pBiFC-VC155 vector digested with EcoRI/BglII. All plasmid clones were verified by DNA Sanger sequencing.
HEK293T cells cultured in 12-well plates were transfected with appropriate plasmids for each BiFC assay using FuGENE® 6 (Promega, Madison, WI, USA). After 5 h, various concentrations of chemical compounds were added to the culture media. DMSO was used as the vehicle control. Fluorescence images of treated cells at 24 h after plasmid transfection were captured using an inverted Nikon fluorescence microscope. Fluorescence intensity of treated cells was measured by ImageJ.
Using the previously described BiFC vector based on the fragmented venus protein (VN-155[I152L], hereafter named VN) and (VC-155, hereafter named VC), fusion protein constructs were established between the porcine CD163 protein SRCR5 or SRCR2 domain and VN, and between the PRRSV minor glycoproteins (GP2a or GP4) and VC (FIG. 1A, 2). See Kodama et al., Biotechniques 49(5): 793-805 (2010). These plasmids were co-expressed in HEK293T cells to evaluate the PPIs between the SRCR5 domain and GP2a or GP4.
The BiFC assays was tested to determine whether it could identify small molecules with potential to block the protein-protein interactions between CD163 and PRRSV. A customized virtual screen of a library of commercially available small molecules was performed with the AtomNet® model at a region centered around R561 (FIG. 3) based on the available 3-D protein structure of porcine CD163-SRCR5 domain, and 74 compounds predicted to target this potential binding site were procured. Ma et al., J. Virol. 91(3): e01897-16 (2017). These compounds were tested using the BiFC assay, to evaluate their ability to inhibit the PPI between GP2a and SRCR5. Plasmids were co-transfected in HEK293T cells, 4 h later, compounds were individually administered to cells at 5 μM. Twenty-four hours later, images were taken under a fluorescence microscope and the fluorescence quantified. […] Until these studies, there has been no known biological activity reported for compound B7.

Cc1cc(F)ccc1S(=O)(=O)Nc1nc2ccccc2nc1Nc1cccc(S(=O)(=O)N2CCOCC2)c1 [Compound B7, 4-fluoro-2-methyl-N-[3-(3-morpholin-4-ylsulfonylanilino)quinoxalin-2-yl]benzenesulfonamide]
inhibition of PRRSV infection of PAMs (qRT-PCR, viral RNA) ([1]; 0, 5, 10, 15, 20 μM, 4 h pre-treatment, 1 h inoculation MOI=0.1, 24 h after inoculation): dose-dependent inhibition; also recorded: inhibits PRRSV infection of porcine alveolar macrophages (PAMs) | inhibitory effect on PRRSV infection (qRT-PCR), pre-treatment alone ([1]; 15 μM, 4 h pre-treatment only, no post-treatment, VR-2332): minimal impact | inhibition of PPI between PRRSV GP4 glycoprotein and CD163-SRCR5 domain (BiFC) [2]: also inhibited the PPI; also recorded: significantly inhibits the interaction | log reduction of viral titers across the 3 Type II PRRSV strains [3]: 2.8-3.1 log | log reduction of viral titer ([4]; 10 μM, 24 h): 1.7 log | log reduction of PRRSV titer, post-inoculation treatment alone ([4]; 15 μM, 24 h): 2.8 log | log reduction of viral titer ([4]; 15 μM, 24 h): 2.9 log | inhibition of PRRSV infection of PAMs (titration of culture media) ([4]; 10-20 μM B7, 24 h): inhibited PRRSV infection of PAMs effectively | log reduction of viral titer for the type I strain (Lelystad) [5]: 2.2 log | inhibition of PPI between GP2a and SRCR5 (venus fluorescence in BiFC assay) [6]: significantly inhibited the reconstitution of venus fluorescence; also recorded: positive inhibitory effect; also recorded: significantly inhibits the interaction
